{"source": "patent US11597936B2", "about": "“Recombinant Dgkk gene for fragile X syndrome gene therapy” (UNIVERSITE DE STRASBOURG, priority 2016, dated 2023)", "key": {"Cos-1 cells": {"tested_on": "Cos-1 cells", "experiment": "Western blot (anti-HA) of Dgkk constructs in Cos-1 cells, siFmr1 versus siRNA control", "format": "cell-based", "details": "siFmr1 vs siCtrl, HA signal normalized to GAPDH", "description": "COS cells (ATCC® CRL-1650™) were grown in DMEM supplemented with 10% fetal calf serum, 1 g/l glucose in the presence of antibiotics at 37° C. in 5% CO2. The day before transfection, 4×10^4 cells were plated into 24-well format plates in 500 μl of antibiotic-free medium.\nTransfections of sh-RNAs were performed in triplicate with Lipofectamine 2000 (Invitrogen, Carlsbad, Calif.) on 60 000 cells as directed by the manufacturer with 20 pmol of siRNA (Control or On Target plus Smart Pool mouse FMR1, Thermo) in a final volume of 600 μl. Twenty-four hours later, 0.6 μg of a plasmid construction and 20 pmol of shRNA were co-transfected as above. Fourty-eight hours later, cells washed twice in PBS were lysed directly in the loading buffer (100 mM Tris-HCl, pH 6.8, 4% SDS, 30% glycerol, 1.4 M ß-mercaptoethanol, and bromophenol blue) for 3 min at 95° C. Proteins were analyzed on a 10% SDS-polyacrylamide gel and immunoblotted onto PVDF (Millipore) in Tris-glycine-SDS/20% ethanol buffer for 1 h at 200 mA. […]\nIn a second series of experiments, the inventors aimed to determine which part of the 5′ region of Dgkk is important in the control of Dgkk expression by FMRP. […] Then, as previously described, Cos-1 cells were transfected by these constructs in the presence or absence of Fmr1 siRNA and the expression of the constructs was analyzed by western-blot."}, "CA1 pyramidal neurons": {"tested_on": "CA1 pyramidal neurons", "experiment": "Dendritic spine morphology and dynamics in hippocampal organotypic slice cultures", "format": "cell-based, mouse", "source_text": "A short hairpin RNA designed to target Dgkk (shRNA Dgkk, 5′-[…], SEQ ID No: 6) and the selected shRNA-scramble sequence (5′-[…], SEQ ID No: 7) that has no match in silico in the mouse genome, were cloned under the control of the mU6 promoter into a pAAV-MCS derived plasmid expressing enhanced green fluorescent protein (EGFP) under the control of a CMV promoter. Overexpression of Dgkk was achieved by cloning HA-tagged Δ5′reg-Dgkk under the control of the human Synapsin-1 gene promoter replacing EGFP in the control plasmid pENN.AAV.hSynapsin1.EGFP.RBG (provided by the Penn Vector Core at University of Pennsylvania). Recombinant adeno-associated virus serotype 9 (AAV9) co-expressing EGFP and shRNA (AAV9-EGFP-shRNA-Dgkk and control AAV9-EGFP-shRNA-scramble) as well as AAV9 expressing HA-Dgkk or EGFP (AAV9-hSynapsin1-HA-Dgkk and control AAV9-hSynapsin1-EGFP) were generated. AAV production was carried out using the AAV Helper-Free system (Agilent Technologies) with some modifications. AAV9 vectors were generated by triple transfection of 293T/17 cell line using either pAAV-EGFP-shRNA-Dgkk or pAAV-EGFP-shRNA-scramble, pAAV-hSynapsin1-HA-Δ5′reg-Dgkk or pENN.AAV.hSynapsin1.EGFP.RBG together with pAAV2/9 (Penn Vector Core) containing cap genes of AAV serotype 9 and pHelper. Two days after transfection, cells were collected, lysed by three freeze/thaw cycles in dry ice-ethanol and 37° C. baths, further treated with 100 U/ml Benzonase (Novagen) for 30 min at 37° C. and clarified by centrifugation. Viral vectors were purified by iodixanol (Optiprep™, Axis Shield) gradient ultracentrifugation followed by dialysis and concentration against PBS containing 0.5 mM MgCl2 using centrifugal filters (Amicon Ultra-15 100 K). Viral particles were quantified by real time PCR using a linearized standard plasmid pAAV-EGFP.\nHippocampal organotypic slice cultures (400 μm thick) were prepared from postnatal 5-6 day old C57BL/6 Fmr1+/y or its Fmr1−/y littermate mice using a protocol approved by the Geneva veterinary office and maintained under culture conditions as described (De Roo M et al, 2008, Cereb Cortex, 18(1):151-161). Transfection was carried out at DIV7 with a biolistic method (Helios Gene Gun, Bio-Rad) using gold beads coated with mRFP and either pAAV-EGFP-shRNA-Dgkk, pAAV-EGFP-shRNA-scramble, pAAV-hSynapsin1-EGFP or pAAV-hSynapsin1-HA-[…]. Repetitive confocal imaging was performed as previously described (De Roo M et al, 2008, Cereb Cortex, 18(1):151-161). Briefly, dendritic segments of CA1 transfected neurons (30-40 μm in length) were imaged from DIV12 to DIV15 (at 0, 5, 24, 48 and 72 hours) using an Olympus Fluoview 300 system and analysis of the Z-stacked images so obtained was performed using Osirix software."}, "[1]": {"details": "versus shRNA-scramble transfected cells"}}}
{"substance": "Dgkk-FL: plasmid carrying all mouse Dgkk exons, its 5′UTR, its 3′UTR and a HA tag (SEQ ID No: 8)", "values": [{"measurement": "reduction of the expression level of the construct when FMRP expression is reduced", "setting": "Cos-1 cells", "result": "about 70%"}]}
{"substance": "shRNA-Dgkk: short hairpin RNA designed to target Dgkk (SEQ ID No: 6), in pAAV plasmid expressing EGFP (guide GGAATGCACTACTGGTATTCC; shRNA hairpin expressed from pAAV-EGFP vector)", "values": [{"measurement": "spine density", "setting": "CA1 pyramidal neurons; CA1 pyramidal neurons, biolistic transfection", "result": "Absence of changes"}, {"measurement": "lost spines per 24 h", "setting": "CA1 pyramidal neurons; [1]", "result": "Increase"}, {"measurement": "multi-head spines", "setting": "CA1 pyramidal neurons; [1]", "result": "Increase"}, {"measurement": "mushroom spines", "setting": "CA1 pyramidal neurons; [1]", "result": "decrease"}, {"measurement": "new spine formation per 24 h", "setting": "CA1 pyramidal neurons; [1]", "result": "Increase"}]}
